In the test the test system is PC12-HS cells. Briefly: Evaluation B: neurite-outgrowth action in presence of NGF. It is filed as cell-based, rat. The note with it: 3 days; for Evaluation B: Neurite-outgrowth action: 50 μl of 400 ng/ml test sample solution per well + NGF final 5 ng/ml.

We go through 17 molecules from patent US20120035187A1 (priority 2009, published 2012).

As to `CCCCN1C(C)=CS\C1=C/C=C(\C=C\c1scc(C)[n+]1CCCC)c1scc(C)[n+]1CCCC.[Cl-].[Cl-]` [NK-56], the “Percentage (%) of cells with neurite outgrowth” value (50 μl/well of 2 μg/ml test solution + NGF final 5 ng/ml) came to 28%. As to `CCN1C(C)=CS/C1=C\C=C\c1scc(C)[n+]1CC` [NK-67], the “Evaluation B: Neurite-outgrowth action” value is “∘ (The test sample with a neurite outgrowth rate of 30% or higher was judged to be equivalent or more (∘) compared with NK-4)”.

As to `CCN1/C(=C/C=C/c2oc3ccccc3[n+]2CC)Oc2ccccc21.[I-]` [NK-85], the “Evaluation B: Neurite-outgrowth action” value is given as “∘ (The test sample with a neurite outgrowth rate of 30% or higher was judged to be equivalent or more (∘) compared with NK-4)”. On the same count and under the same terms, the result for `CN1/C(=C/C=C/c2oc3ccccc3[n+]2C)Oc2ccccc21.[I-]` [NK-86] reads “∘ (The test sample with a neurite outgrowth rate of 30% or higher was judged to be equivalent or more (∘) compared with NK-4)”. On the same count and under the same terms, the result for `CN1/C(=C/c2oc3ccccc3[n+]2C)Oc2ccccc21.[I-]` [NK-87] reads “∘ (The test sample with a neurite outgrowth rate of 30% or higher was judged to be equivalent or more (∘) compared with NK-4)”; that for `CN1/C(=C/C=C/C=C/C=C/C2=[N+](C)c3ccccc3C2(C)C)C(C)(C)c2ccccc21.[I-]` [NK-125], “∘ (The test sample with a neurite outgrowth rate of 30% or higher was judged to be equivalent or more (∘) compared with NK-4)”; that for `CCN1/C(=C/C=C/C=C/c2sc3ccccc3[n+]2CC)Sc2ccccc21.[I-]` [NK-136], “∘ (The test sample with a neurite outgrowth rate of 30% or higher was judged to be equivalent or more (∘) compared with NK-4)”. Still for that read-out and setting: next, `CCCCCCC[n+]1c(/C=C/c2ccc(N(C)C)cc2)ccc2ccccc21.[I-]` [NK-231]: “∘ (The test sample with a neurite outgrowth rate of 30% or higher was judged to be equivalent or more (∘) compared with NK-4)”; `CCCCCCCN1C(C)=CS/C1=C\c1scc(C)[n+]1CCCCCCC.[I-]` [NK-266]: “∘ (The test sample with a neurite outgrowth rate of 30% or higher was judged to be equivalent or more (∘) compared with NK-4)”. Take `CCN1/C(=C/c2cc[n+](CC)c3ccccc23)C=Cc2ccccc21.[I-]` [NK-276]: the “Evaluation B: Neurite-outgrowth action” value was “∘ (The test sample with a neurite outgrowth rate of 30% or higher was judged to be equivalent or more (∘) compared with NK-4)”.

As to `CCCCCCC[n+]1c(C)csc1/C=C/c1ccc(N(C)C)cc1.[Cl-]` [NK-279], the “Evaluation B: Neurite-outgrowth action” value is given as “∘ (The test sample with a neurite outgrowth rate of 30% or higher was judged to be equivalent or more (∘) compared with NK-4)”. On the same count and under the same terms, the result for `CC(C)CC[n+]1ccc(/C=C/c2ccc(N(C)C)cc2)c2ccccc21.[I-]` [NK-282] reads “∘ (The test sample with a neurite outgrowth rate of 30% or higher was judged to be equivalent or more (∘) compared with NK-4)”. Same read-out and setting: the result for `CC[n+]1c(/C=C/C=C/c2ccc(N(C)C)cc2)sc2ccccc21.[I-]` [NK-375] reads “∘ (The test sample with a neurite outgrowth rate of 30% or higher was judged to be equivalent or more (∘) compared with NK-4)”. Same read-out and setting: next, `CCN1/C(=C/C=C/c2sc3ccc4ccccc4c3[n+]2CC)Sc2ccc3ccccc3c21.[I-]` [NK-382]: “∘ (The test sample with a neurite outgrowth rate of 30% or higher was judged to be equivalent or more (∘) compared with NK-4)”; `CCCCN1C(C)=CS/C1=C\c1scc(C)[n+]1CCCC.[I-]` [NK-399]: “∘ (The test sample with a neurite outgrowth rate of 30% or higher was judged to be equivalent or more (∘) compared with NK-4)”; `CCCC[n+]1c(C=Cc2ccc(N(C)C)cc2)sc2ccccc21.[I-]` [NK-490]: “∘ (The test sample with a neurite outgrowth rate of 30% or higher was judged to be equivalent or more (∘) compared with NK-4)”.

Consider `CC[n+]1ccc(/C=C/C=C/c2ccc(N(C)C)cc2)c2ccccc21.[I-]` [NK-526], for which the “Evaluation B: Neurite-outgrowth action” value is reported as “∘ (The test sample with a neurite outgrowth rate of 30% or higher was judged to be equivalent or more (∘) compared with NK-4)”.
